Test results taken from US11672815B2, “Composition for inhibiting immune cell proliferation comprising sialyllactose or derivative thereof and method thereof” (CUPIONE CO., LTD., priority 2017, dated 2023).

Columns and labels:
Mmp3 = Mmp3 expression in IL-1β-treated chondrocytes (qRT-PCR, Western blotting); assay type: cell-based, mouse; settings: 5 ng/ml of IL-1β, 0 to 250 μM, 24 hrs; concentration-dependent
Protocol: IL-1β is a representative inflammatory cytokine that decreases Col2a1 essential for cartilage formation in chondrocytes and also promotes articular inflammation and cartilage tissue destruction. Chondrocytes were treated with 5 ng/ml of IL-1β by time, and then qRT-PCR was performed using conditions and primers of the following Table 1 according to the method of Example 2-1 to examine inhibition of Mmp3 and Mmp13 expression.
Secretory proteins such as Mmp3 and Mmp13 were allowed to react at 0° C. for 20 min after reacting 900 μl of serum-free medium (conditioned medium) with 100 μl of trichloroacetic acid (TCA). Next, a supernatant was discarded by centrifugation at 12,000 rpm and 4° C. for 10 min, and then reacted with 500 μl of 100% cold acetone at […] for 1 hr. The sample reacting with 100% acetone was centrifuged to discard a supernatant, and proteins were finally precipitated and detected. Western blotting was performed using anti-Mmp3 antibody (Abcam) and anti-Mmp13 antibody (Abcam), and thickness and concentration of Western blot bands were measured by a computer program and relative values thereof were determined by densitometry.

[1] = tested on: extracellular-signal regulated kinase (Erk); test: Erk phosphorylation in IL-1β-treated chondrocytes (Western blotting, densitometry); assay type: cell-based, mouse; settings: 5 ng/ml of IL-1β, 0 μM, 50 μM, 100 μM, or 250 μM
Protocol: Chondrocytes of mouse knee joint were treated with 5 ng/ml of IL-1β for 10 min to examine activation of extracellular-signal regulated kinase (Erk) through Erk phosphorylation.
Chondrocytes were co-treated with 5 ng/ml of IL-1β and 0 μM, 50 μM, 100 μM, or 250 μM of 3′-sialyllactose, and Erk phosphorylation increased by IL-1β was confirmed to be decreased by 3′-sialyllactose (FIG. 8).

[2] = tested on: DMM-induced osteoarthritis mouse model; test: DMM-induced osteoarthritis mouse model, oral administration; assay type: in vivo
Protocol: All animal experiments were approved by the Animal Care and Use Committee of the University of Ajou. For osteoarthritis models, 8-week-old male C57BL/6 mice were subjected to destabilization of the medial meniscus (DMM) surgery. Mice knee joints were processed for histological analysis 10 weeks after surgery. In detail, the experimental mice also received gavage feeding of PBS containing 3′-sialyllactose (100 mg/Kg) starting at 2 weeks prior to DMM, and oral feeding on every other day during 4 weeks after surgery, and performed three times a week for total 6 weeks until the end of the experiment. Then, the mice were sacrificed. Control mice were administered with PBS in the same manner.
Knee joints of the mice sacrificed in Example 6-1 were fixed in 4% paraformaldehyde, treated with 0.5 M EDTA (pH 8.0) for 2 weeks, and embedded in paraffin. The paraffin blocks were sectioned at a thickness of 5 μm and serial-sectioned at 40-μm intervals. The paraffin sections were deparaffinized in xylene and hydrated with graded ethanol. Cartilage destruction was detected by Safranin-O staining and scored using the Osteoarthritis Research Society International (OARSI) grading system. Mmp3 (ab52915), Mmp13 (ab51072), Cox2 (SC-1745), pErk ((#9101), IjB (9242), Sox9 (NBP2-24659; Novus, Littleton, USA) and Col2a1 (MAB8887) were immunostained as previously described.

[3] = tested on: collagen-induced arthritis (CIA) mouse model; test: Prophylactic effect in collagen-induced arthritis (CIA) mouse model; assay type: in vivo; settings: 100 mg/kg and 500 mg/kg oral, 4 weeks
Protocol: In order to examine prophylactic effects of 3′-sialyllactose during development of arthritis, collagen-induced arthritis (CIA) mouse model was orally administered with 3′-sialyllactose three times a week for 4 weeks at various concentrations (100 mg/kg and 500 mg/kg). In detail, the mouse models immunized day 1 and day 21 were orally administered with 3′-sialyllactose every other days for 4 weeks after second immunization. Control groups were orally administered with PBS, lactose, or sialic acid.

[4] = tested on: mouse models with rheumatoid arthritis; test: Therapeutic effect in mice with arthritis; assay type: in vivo; settings: 500 mg/kg oral every other day for 2 weeks
Protocol: Next, in order to examine therapeutic effects of 3′-sialyllactose, mice with arthritis were orally administered with 3′-sialyllactose. In detail, 8-week-old DBA mice were immunized day 0 and day 21, and then orally administered with 500 mg/kg of 3′-sialyllactose every other days for 2 weeks. Control groups were administered with lactose (250 mg/kg), sialic acid (250 mg/kg), or MTX (1 mg/kg).

mouse FLS [5] = test: WST-1 assay on mouse FLS; assay type: cell-based
Protocol: (§1) Anti-chemokine and anti-inflammatory effects of 3′-sialyllactose were examined. First, purity of mouse FLS was examined by FACS analysis, and then no effects of 3′-sialyllactose on FLS proliferation and cytotoxicity were examined by WST-1 assay (see FIGS. 14A-A to 14A-C). […] Therefore, in a subsequent in vitro experiment, 3′-sialyllactose was used at a concentration of 0 μM to 250 μM. In order to examine effects of 3′-sialyllactose on IL-1β-, IL-6-, IL-17-, and TNF-α-induced chemokines (e.g., CCL2, CCL5, CCL7, CXCL1, CXCL2, and CXCL5), pro-inflammatory cytokines (IL-1, IL-6, and TNF-α), and COX2 expression, IL-1β-, IL-6-, IL-17-, and TNF-α-stimulated human RA-FLS and mouse FLS were treated with 3′-sialyllactose (100 μM or 250 μM) for 24 hrs.

mouse FLS [6] = test: Chemokine, pro-inflammatory cytokine and COX2 expression in stimulated mouse FLS; assay type: cell-based; settings: IL-1β-, IL-6-, IL-17-, and TNF-α-stimulated mouse FLS; 100 μM or 250 μM, 24 hrs
Protocol: as §1

[7] = tested on: atopic dermatitis mouse model; test: Atopic dermatitis mouse model, oral administration; assay type: in vivo; settings: 100 mg/kg or 500 mg/kg oral
Protocol: In order to examine inhibitory effect of 3′-sialyllactose on atopic dermatitis, ear thickness of atopic dermatitis mouse model was examined at 28 days after oral administration of 100 mg/kg or 500 mg/kg of 3′-sialyllactose. Further, the left ear skin of the mouse was cut into thin sections, stained with hematoxylin and eosin (H&E), and stained with toluidine blue.

## CC(=O)N[C@H]1C([C@H](O)[C@H](O)CO)O[C@@](O[C@@H]2C(O)[C@H](O[C@@H]3C(CO)OC(O)C(O)[C@H]3O)OC(CO)[C@@H]2O)(C(=O)[O-])C[C@H]1O.[Na+] (stereo partly shown) [3′-sialyllactose]
Mmp3
  Mmp3 expression increased by IL-1β in chondrocytes: decreased
[1]
  Erk phosphorylation increased by IL-1β: decreased
[2]; 100 mg/Kg gavage, 10 weeks after DMM surgery
  OARSI scores (cartilage destruction) compared with control mouse: remarkably low
[2]; 100 mg/Kg oral, DMM model
  Cox2 expression (immunohistochemical staining): decreased
  Mmp3 expression (immunohistochemical staining): decreased
  Mmp13 expression (immunohistochemical staining): decreased
[3]
  expression of pro-inflammatory cytokines (mouse sera): decreased
  swelling of CIA mouse model: alleviated
[4]
  expression of pro-inflammatory cytokines (mouse sera): decreased
  swelling: alleviated
Mouse FLS [5]
  FLS proliferation and cytotoxicity: no effects
Mouse FLS [6]
  expression levels of chemokines, pro-inflammatory cytokines, and COX2: remarkably decreased
[7]; 28 days
  mouse ear thickness: decreased
[7]; concentration-dependent
  ear dermal thickness: decreased
  ear epidermal thickness: decreased
  number of mast cells in the ear skin (toluidine blue staining): decreased
